Experimental data from patent publication US8242086B2, “Methods and compositions for treating disorders caused by a deficiency in a gene product of a CLN gene” (Duke University, priority 2008, dated 2012).

Legend:
mutant CLN3p = experiment: Protein-lipid overlay assay, mutant CLN3p (JNCL cell lysate); assay type: binding, human; settings: lysate of JNCL cells, anti-CLN3 antibody
Procedure: (§1) Protein-lipid overlay assay. Membrane arrays (SPHINGOSTRIPS (Echelon Research Laboratories, Salt Lake City, Utah), or lipids were spotted on nitrocellulose membranes and dried for at least one hour. Membranes were blocked with 3% (wt/vol) Fatty Acid Free or FFA-BSA (Sigma-Aldrich, St. Louis, Mo.) in Tris-Buffered Saline Tween-20 (TBST) [150 mM NaCl/10 mM Tris.HCl (pH 8.0), and 0.1% (vol/vol) Tween-20] for 1 h at RT. Blocked membranes were incubated for 8 h at 4° C. with 2 mg/ml of total cell lysate.
(§2) Fibroblasts overexpressing CLN3p (AC1 cells) and JNCL fibroblasts were used for the GalCer-CLN3 binding assay. The membranes were then washed five times for 5 min each with TBST. After washing, membranes were incubated with anti-CLN3, CLN1, CLN2, CLN6 or CLN8-antibodies overnight at 1:1000 dilution, followed by additional washing and incubation with horseradish peroxidase-conjugated anti-rabbit IgG goat antibody for 1 h at RT. After a final washing, enhanced chemiluminescence was used to detect binding of NCL proteins to sphingolipids. Intensity values were computed with an ImageJ software program.
Binding of CLN3 to GalCer and sulfatide. Membranes impregnated with sphingolipids were overlaid with protein cell lysates from CLN3-overexpressing and JNCL cells. Anti-CLN3 antibody was used to evaluate binding. […]

[1] = tested on: galactosylceramide transferase (GCT); settings: exogenous supplementation of GalCer; Rusyn E et al., 2008; cited from earlier work
CLN6 protein = target: T1, CLN6 protein (Homo sapiens, UniProt Q9NWW5); experiment: Protein-lipid overlay assay, CLN6 protein; assay type: binding; settings: lysates from normal cells, custom made sphingostrips
T1 construct: endogenous in cells
T1 sequence (Q9NWW5 1-311): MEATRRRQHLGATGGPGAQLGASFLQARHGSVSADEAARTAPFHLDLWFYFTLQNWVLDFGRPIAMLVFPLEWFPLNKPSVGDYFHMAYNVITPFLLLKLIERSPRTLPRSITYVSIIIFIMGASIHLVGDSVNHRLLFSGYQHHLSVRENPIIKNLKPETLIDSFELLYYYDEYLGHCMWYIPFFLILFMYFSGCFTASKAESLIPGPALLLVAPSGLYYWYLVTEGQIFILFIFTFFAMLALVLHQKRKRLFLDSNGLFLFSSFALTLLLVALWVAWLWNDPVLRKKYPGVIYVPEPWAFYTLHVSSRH
Procedure: as §1, §2
CLN1, CLN2, CLN6, CLN8 and CLN9 proteins also bind to lipids. The protein-lipid overlay assay, using custom made sphingostrips, lysates from normal cells and anti-CLN1, anti-CLN2-, anti-CLN6, and anti-CLN8-antibodies, established that CLN6 and CLN8 proteins bind to GalCer, CLN1, CLN2 and CLN6p bind lysophosphatidic acid (LPA) and sulfatide, and CLN8p binds ceramide (FIG. 5).

CLN3 knockdown NT2 cells = experiment: Cell apoptosis rate in CLN3 knockdown NT2 cells, propidium iodide; assay type: cell-based, human; settings: GalCer 50 ng/ml, 3 days after transfection
Procedure: Cell Culture and Cell Treatment. NT2 neuronal precursor cells (ATCC cat no. CRL 1973) were grown in DMEM supplemented with 1% sodium pyruvate, L-glutamine and antibiotics and incubated in 37 C and 5% CO2 for 3 days.
siRNA knockdown of CLN3 in NT2 cells. HS1 siRNA ([…]) for CLN3 knockdown was designed using BLOCK-iT RNA™ Designer (Invitrogen). […] siRNA and scrambled universal negative control siRNA oligonucleotides were transfected into wild type NT2 cells using Lipofectamine RNAiMax™ according to manufacturer's protocol. In brief, […] HS1 RNAi duplex or scrambled siRNA universal negative control were diluted in 50 μl DMEM medium without serum. Lipofectamine™ RNAiMAX was mixed gently before use, then 1 μl was diluted in 50 μl DMEM medium. The diluted RNAi duplexes were combined with the diluted Lipofectamine RNAiMAX and incubated for 10 minutes at room temperature. […]
Determination of cell apoptosis rate in CLN3 knockdown NT2 cells. 10^6 cells transfected with CLN3 siRNA or scrambled siRNA, either treated with 50 ng/ml of GalCer (Avanti Polar Lipids, inc.) or solvent, are suspended in 100 μl PBS, incubated with 100 μl/0.5 mg/ml PI, washed, placed on slides and viewed using a fluorescence microscope. […] Cells in three fields of vision were counted. Percentage of red staining-apoptotic cells/total cells was determined.

Substance: galactosylceramide [GalCer]
- binding of mutant CLN3 to membrane spots impregnated with the lipid (mutant CLN3p): failed to do so
- growth defect and increased apoptosis of GalCer synthase knockdown lymphoblasts [1]: remedied
- binding of CLN6 protein to lipid (CLN6 protein): bind
- cell death (apoptosis) of CLN3-deficient NT2 cells (CLN3 knockdown NT2 cells): significantly reduces cell death
